Results taken from PMC7614683, “A small molecule PI3Kα activator for cardioprotection and neuroregeneration” (Nature, 2023).
Read-outs that look alike come from different tables or passages of the source.

Key:
[1] = molecular target: T1, mTORC1 (mTOR/RAPTOR/LST8 complex) (Homo sapiens, UniProt P42345); test: mTORC1 in vitro kinase assay (Phos-tag gel); format: biochemical; conditions: 200 μM 1938
T1 construct: made in house
Procedure: 133 protein kinases and 7 lipid kinases were counterscreened, with 1938 used at 1 μM, using the Adapta, Lantha and Z-LYTE assays (SelectScreen Kinase Profiling Service; Thermofisher – experimental details of these assays can be found here: https://www.thermofisher.com/uk/en/home/industrial/pharma-biopharma/drug-discovery-development/target-and-lead-identification-and-validation/kinasebiology/kinase-activity-assays.html. The tree represention in KinMap[59] generated courtesy of Cell Signaling Technology, Inc. (www.cellsignal.com). mTORC1 (mTOR/RAPTOR/LST8) protein complex and ATM kinase and substrates were produced as previously described[57],[60]. Screening of 1938 was conducted using SuperSep Phos-Tag 50 μmol/l 100 x 100 x 6.6 mm 17-well (192-18001/199-18011) gels. For ATM assays, 100 nM ATM was incubated for 30 min at 30°C with 5 μM GST-p53 and 1 mM ATP, in the absence or presence of 200 μM 1938 in ATM Kinase Buffer (50 mM HEPES pH 7.5, 100 mM NaCl, 10% glycerol, 2 mM […], 5 mM MgCl2). As a positive control for ATM activation, the same reaction was carried out with 100 nM ATM/5 μM GST-p53/1 mM ATP in the presence of 100 nM Mre11-Rad50-Nbs1 (MRN) complex, a known activator of ATM[61]. […] Gels were then stained using InstantBlue™ Coomassie, and quantified using BioRad Image Lab Software. […]

LCK = LCK (Homo sapiens, UniProt P06239); test: SelectScreen kinase profiling, LCK; format: biochemical
Procedure: 133 protein kinases and 7 lipid kinases were counterscreened, with 1938 used at 1 μM, using the Adapta, Lantha and Z-LYTE assays (SelectScreen Kinase Profiling Service; Thermofisher – experimental details of these assays can be found here: https://www.thermofisher.com/uk/en/home/industrial/pharma-biopharma/drug-discovery-development/target-and-lead-identification-and-validation/kinasebiology/kinase-activity-assays.html. The tree represention in KinMap[59] generated courtesy of Cell Signaling Technology, Inc. (www.cellsignal.com). mTORC1 (mTOR/RAPTOR/LST8) protein complex and ATM kinase and substrates were produced as previously described[57],[60]. Screening of 1938 was conducted using SuperSep Phos-Tag 50 μmol/l 100 x 100 x 6.6 mm 17-well (192-18001/199-18011) gels. For ATM assays, 100 nM ATM was incubated for 30 min at 30°C with 5 μM GST-p53 and 1 mM ATP, in the absence or presence of 200 μM 1938 in ATM Kinase Buffer (50 mM HEPES pH 7.5, 100 mM NaCl, 10% glycerol, 2 mM […], 5 mM MgCl2). As a positive control for ATM activation, the same reaction was carried out with 100 nM ATM/5 μM GST-p53/1 mM ATP in the presence of 100 nM Mre11-Rad50-Nbs1 (MRN) complex, a known activator of ATM[61]. For mTORC1 assays, 50 nM mTORC1 complex (mTOR/LST8/RAPTOR) was incubated for 3 h at 30°C with 15 μM 4E-BP1, 10 mM MgCl2 and 250 μM ATP, in the absence or presence of 200 μM 1938. As a ‘positive’ control, a higher concentration (150 nM) of mTORC1 complex (mTOR/LST8/RAPTOR) was incubated for 3 h at 30°C with 15 μM 4E-BP1, 10 mM MgCl2 and 250 μM ATP. Kinase reactions were quenched by addition of SDS-PAGE Loading Buffer (as per manufacturer’s instructions) and freezing at -20°C before being run on the Phos-tag gels at 150 V for 90 min. Gels were then stained using InstantBlue™ Coomassie, and quantified using BioRad Image Lab Software. Kinase assays were carried out in triplicate.

A549 cells = test: pAKT S473 western blot / Wes, A549; format: cell-based, human
Procedure: Unless otherwise indicated, western blotting was performed with ECL detection. For time course studies, A549 cells were seeded at 250,000 cells per well in 6-well plates in RPMI (10% FBS + 1 mM Na-Pyruvate + 1% P/S) and allowed to adhere overnight. The next day they were serum-starved for 4 h prior to treatment with 100 nM insulin or 5 μM 1938, for the indicated time (5 min to 48 h) at 37°C, 5% CO2. For 1938 titration assays in MEFs, cells were seeded at 150,000 cells per well in 6-well plates and allowed to adhere overnight. The next day they were serum-starved for 4 h prior to treatment with insulin (1 μM), 1938 (0.2 to 30 μM, final DMSO concentration of 1.5%) or inhibitors (final DMSO concentration of ≤1.5%) for 15 min at 37°C, 5% CO2. Cells were washed twice with cold PBS and lysed using cold RIPA buffer (25 mM Tris.HCl pH 7.6, 150 mM NaCl, 1% NP-40, 1% sodium deoxycholate, 0.1% SDS supplemented with protease/phosphatase inhibitor cocktail from Merck). To remove cell debris, homogenates were spun at 13,000 rpm for 15 min at 4°C and the supernatant fraction recovered. Protein concentration was determined by colorimetric assay (BCA assay, Promega). Protein extracts were resolved by SDS-PAGE, transferred to nitrocellulose membranes, and incubated overnight at 4°C with specific antibodies as follows: anti-vinculin (Sigma #V9131) and the following antibodies from Cell Signaling Technology (CST): pAKT-S473 (CST #9271), pS6-S240/244 (CST #2215), pPRAS40-T246 (CST #2640) and total S6 (CST #2317). Primary ntibodies were used at 1:1000 dilution except anti-vinculin (1:10000). Secondary antibodies are also from Cell Signalling Technology: Anti rabbit IgG, HRP linked Antibody (CST #7074S), Anti mouse IgG, HRP linked Antibody (CST #7076S). Raw and uncropped blots are shown in Supplementary Fig. 1.
A549 cells were seeded at 200,000 cells per well in 24-well plates in DMEM (10% FBS + 1% P/S) and allowed to adhere overnight. The next day, cells were washed once with PBS before addition of serum-free DMEM for 24 h. […]

LCK, sequence (P06239 whole entry): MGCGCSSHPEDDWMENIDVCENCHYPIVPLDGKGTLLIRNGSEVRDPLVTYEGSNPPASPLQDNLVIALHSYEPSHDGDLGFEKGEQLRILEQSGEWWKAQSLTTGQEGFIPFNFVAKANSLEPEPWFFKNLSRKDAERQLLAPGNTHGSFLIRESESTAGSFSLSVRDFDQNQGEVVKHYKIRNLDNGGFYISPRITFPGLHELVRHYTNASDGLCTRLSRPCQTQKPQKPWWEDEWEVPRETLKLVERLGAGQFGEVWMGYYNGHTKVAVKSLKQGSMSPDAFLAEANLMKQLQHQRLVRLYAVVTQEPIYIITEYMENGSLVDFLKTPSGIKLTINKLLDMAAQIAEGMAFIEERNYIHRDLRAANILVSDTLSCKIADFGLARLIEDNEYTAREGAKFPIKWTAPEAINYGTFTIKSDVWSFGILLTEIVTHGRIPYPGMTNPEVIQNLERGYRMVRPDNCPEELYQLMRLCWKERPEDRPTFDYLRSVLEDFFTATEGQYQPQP

## CCN1CCN(c2ccc(Nc3cc(Nc4cccc5c4N(C(C)=O)CC5)ccn3)cc2)CC1 [Compound 1938]
[1]
  effect on mTORC1 activity: did not affect the activity
LCK; read-out: % Inhibition Point 1
  inhibition at 1 µM: 60%
LCK; read-out: % Inhibition Point 2
  inhibition at 1 µM: 57%
LCK; read-out: % Inhibition mean
  inhibition at 1 µM: 58%
A549 cells; 1938 5 μM, A549 and MCF10A
  time of peak pAKT^S473 activation: 30 min
  time to induction of pAKT^S473: 5 min
A549 cells; A549
  pAKT^S473 increase: BYL719-sensitive increase in pAKT^S473
